Test results: patent US9283196B1, “Cycloalkyl-diamines for CNS disorders” (MediSynergics, LLC, priority 2013, dated 2016)

What was measured:
[1] = target: kappa opioid receptors (KOR) (Homo sapiens, UniProt P41145); assay: kappa opioid receptor (KOR) Ki determination by NIMH PDSP; assay type: binding
Experimental: (§1) The compounds from the above Examples were tested for activity vs. kappa opioid receptors (KOR) and for Sigma-1 activity. Ki determinations were generously provided by the National Institute of Mental Health's Psychoactive Drug Screening Program (PDSP), Contract # HHSN-271-2013-00017-C (NIMH PDSP). The NIMH PDSP is Directed by Bryan L. Roth MD, PhD at the University of North Carolina at Chapel Hill and Project Officer Jamie Driscoll at NIMH, Bethesda Md. U.S.A. Procedures employed by the PDSP are described in the NIMH PDSP Assay Protocol Book, Version II.

Sigma-1 = Sigma-1 Ki determination by NIMH PDSP; assay type: binding
Experimental: as §1

kappa opioid receptors (KOR), sequence (P41145 whole entry): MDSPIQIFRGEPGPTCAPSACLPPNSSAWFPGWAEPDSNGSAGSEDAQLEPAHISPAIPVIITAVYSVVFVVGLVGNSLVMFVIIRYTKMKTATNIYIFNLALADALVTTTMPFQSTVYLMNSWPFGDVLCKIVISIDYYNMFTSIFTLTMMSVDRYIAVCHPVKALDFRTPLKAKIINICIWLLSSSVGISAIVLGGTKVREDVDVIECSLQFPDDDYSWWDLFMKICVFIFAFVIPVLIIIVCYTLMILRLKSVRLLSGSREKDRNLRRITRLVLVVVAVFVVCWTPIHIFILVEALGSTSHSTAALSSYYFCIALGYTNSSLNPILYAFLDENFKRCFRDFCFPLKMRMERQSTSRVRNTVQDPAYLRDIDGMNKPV

SMILES | Ki [1] [µM] | Ki (Sigma-1) [µM]
CN[C@@]1(c2ccccc2Cl)CCCC[C@H]1NCCCN1CCN(C)CC1 (relative stereo) [Example 17b] | > 1 | 0.072
CN[C@]1(c2ccccc2Cl)CCCC[C@H]1NCCCc1ccccc1 (relative stereo) [Example 15a, Trans-1-(2-chlorophenyl)-N^2-(3-phenylpropyl)-N^1-methylcyclohexane-1,2-diamine] | 0.526 | 2.26
CN[C@@]1(c2ccccc2Cl)CCCC[C@H]1NCCCn1ccnc1 (relative stereo) [Example 12b, Cis-1-(2-chlorophenyl)-N^2-(3-(1-imidazolyl)-propyl)-N^1-methylcyclohexane-1,2-diamine] | > 1 | 0.231
CN[C@@]1(c2ccccc2Cl)CCCC[C@H]1NCCCN1CCOCC1 (relative stereo) [Example 16b] | 0.798 | 0.017
CN[C@]1(c2ccccc2Cl)CCCC[C@H]1NCCCN1CCN(C)CC1 (relative stereo) [Example 17a] | > 1 | 0.019
CN[C@@]1(c2ccccc2Cl)CCCC[C@H]1NCCCc1ccccc1 (relative stereo) [Example 15b, Cis-1-(2-chlorophenyl)-N^2-(3-phenylpropyl)-N^1-methylcyclohexane-1,2-diamine] | 0.139 | 0.177
CN[C@@]1(c2ccccc2Cl)CCCC[C@H]1NC1CCCCC1 (relative stereo) [Example 18b, Cis-1-(2-chlorophenyl)-N^2-cyclohexyl-N^1-methylcyclohexane-1,2-diamine] | 0.608 | –
